Measured values reported in PMC10447463, “Data-mining unveils structure–property–activity correlation of viral infectivity enhancing self-assembling peptides” (Nature Communications, 2023).
Like-named read-outs stand apart in the source and are kept apart here.

Columns and labels:
[1] = Conversion rate (CR) assay with fluorescamine; assay type: physicochemical; parameters: key to CR: % = 100−100×filtrate/original fluorescence intensity
Outline: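 1 mg/mL PNF solutions lyophilized and powders measured by diamond ATR FT-IR (2 cm^-1 resolution, 64 scans); β-sheet content calculated per a prior method. For CR, PNF solution centrifuged through 3 kDa MWCO filter (16200 x g, 4 °C, 45 min); filtrate and unfiltered sample lyophilized, dissolved in DMSO, reacted with fluorescamine.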

TZM-bl cells = assay type: cell-based; conditions: CellTiter-Glo, mean of n = 3 replicates; for viability 0.26 µM: peptide 0.26 µM; for viability 1.3 µM: peptide 1.3 µM; for viability 6.5 µM: peptide 6.5 µM
Procedure: The cell viability after addition of peptides to TZM–bl cells was studied via the CellTiter–Glo assay. To this end, 10,000 cells were seeded and on the next day serial diluted peptides were added. After 3 days the supernatant was removed and 100 µL CellTiter–Glo Reagent 1:1 diluted in PBS was added. After 10 min 50 µL was transferred to white microplate and luminescence was recorded by Orion microplate luminometer.
2. Cell Viability of Representatively Selected Peptides
Figure S 2 Cell Viability normalized to 100% metabolic activity as determined by CellTiterGlo Assay of 57 representatively selected peptides from the library. The selection represents infectivity enhancing and not […]
concentration. Error bars indicate standard deviation from triplicate measurements. Source data for Figure S2 […]
Figure S3 Cell Viability normalized to 100% metabolic activity determined by CellTiterGlo Assay of 20 peptides reported in literature. 33,34,43–48,35–42 Cell viability (> 80%) is maintained for all peptides at 1.3 µM concentration regardless of the preparation method, which is A PNF formation method by dilution of 10 mg/mL peptide stock in DMSO in PBS to 1 mg/mL or B preparation according to literature reported protocol (SI Section 8). Error bars indicate standard deviation from triplicate measurements. Source data for Figure S3 is provided.

[2] = ref sieste 2021 or Schilling2019, cited from earlier work
Description: Supplement 41467_2023_40663_MOESM7_ESM.zip/FigS17.csv, table | column: Conversion Rate / % ( from sieste 2021 or Schilling2019)

[3] = previously reported peptides only

Substance | Conversion Rate / % [1] [%] | Conversion Rate / % ([1]; fluorescamine assay) [%] | viability 0.26 µM (TZM-bl cells) | viability 1.3 µM (TZM-bl cells) | viability 6.5 µM (TZM-bl cells) | Conversion Rate / % ( from sieste 2021 or Schilling2019) [2] [%] | other results
QCKIKIQINM [CK2] | 89.7 | 89.7 | 114.5 | 100.8 | 83.71 | – | –
HHHHKIKIKIKIYYYY [TM6] | – | – | 112.4 | 103.8 | 86.78 | – | –
KIKIQINMWQ [JG1] | 95.68 | 95.68 | – | – | – | 93 | –
CKWKWQW [KB4] | – | – | 110.3 | 107 | 96.91 | – | –
CQFQFQF [QBL4] | – | – | 110.4 | 111.2 | 99.59 | – | –
CKAKAQANM [BL9] | 57.73 | 57.73 | – | – | – | 38 | –
KIKIQI [JJA4] | 32.82 | 32.82 | – | – | – | 5 | –
CKFKQFF [CK15] | 90.05 | 90.05 | – | – | – | – | –
RGDCKIKIQINM [TM45] | – | – | 111.8 | 107.9 | 102.5 | – | –
CKFKQFFNMWQ [CK13] | 98.72 | 98.72 | 122.3 | 108 | 88.49 | – | –
CKAKAQA [TM155] | – | – | – | – | – | 44 | –
CKAKAQANMWQ [BL8] | 92.9 | 92.9 | – | – | – | 92 | –
CKIKIQINM [MG2] | 79 | 79 | – | – | – | 72 | –
KIKIQIC [TM112 / CN11] | – | 51.55 | 99.13 | 101.3 | 97.07 | – | –
KIKIKIKIYYYY [JR7] | – | – | 98.76 | 92.93 | 78.89 | – | –
CKIKQIINMWQ [MG5a / CK17] | – | – | 108.4 | 105.1 | 87.21 | – | Conversion Rate / % ( from sieste 2021 or Schilling2019) [2, 3]: 50%
KAKAQANMWQ [JG3] | 47.47 | 47.47 | 106.8 | 106.3 | 103.1 | 65 | –
CHLHLQL [CN9] | – | 96.58 | 107.2 | 104.6 | 96.74 | – | –
KFKFKFQF [TG18] | – | – | – | – | – | – | Conversion Rate / % ( from sieste 2021 or Schilling2019) [2, 3]: 94%

Substance | Conversion Rate / % [1] [%] | Conversion Rate / % ([1]; fluorescamine assay) [%] | viability 0.26 µM (TZM-bl cells) | viability 1.3 µM (TZM-bl cells) | viability 6.5 µM (TZM-bl cells) | Conversion Rate / % ( from sieste 2021 or Schilling2019) [2] [%] | other results
CKFKFQFNM [BL3] | 99.03 | 99.03 | – | – | – | 88 | –
KIKIKIQINMWQ [VH9] | – | – | 103.6 | 97.29 | 82.19 | – | –
CKIKIQI [MG3b] | – | – | 107.8 | 105.2 | 91.32 | 54 | –
CKFKQFFNM [CK14] | – | – | 126.1 | 113.2 | 106.7 | – | –
CKIKQIINM [BL1] | – | – | 107.4 | 104.1 | 87.1 | – | Conversion Rate / % ( from sieste 2021 or Schilling2019) [2, 3]: 45%
KFKFQFNMWQ [JG4] | 98.32 | 98.32 | 119.1 | 111.9 | 101.1 | 94 | Conversion Rate / % ( from sieste 2021 or Schilling2019) ([2]; literature value): 94%
QCKIKIQINMWQ [EF-C opt] | 93.68 | 93.68 | 100.5 | 106.5 | 85.71 | – | –
KIKQIINMWQ [JG2] | 94.17 | 94.17 | 91.29 | 92.88 | 83.88 | – | Conversion Rate / % ( from sieste 2021 or Schilling2019) [2, 3]: 86%
CEFEFQFNMWQ [TM140] | – | 98.63 | 125.8 | 116.7 | 98.23 | – | –
CRFRVPF [CN8] | – | 97.05 | – | – | – | – | –
CKIKQII [MG4a] | – | – | – | – | – | – | Conversion Rate / % ( from sieste 2021 or Schilling2019) [2, 3]: 55%
KFKFQFW [TM71] | – | – | 107.5 | 104.2 | 102.2 | – | –
KIKQIINM [JGA2] | – | – | 123.3 | 117.7 | 101.1 | – | –
QCKFKQFFNM [CK11] | 98.67 | 98.67 | – | – | – | – | –
QCKFKFQFNMWQ [CK7] | 98.91 | 98.91 | 107 | 97.9 | 88.11 | – | –
CKFKFQFNMWQ [BL2] | 99.03 | 99.03 | 106 | 95.99 | 75.41 | 96 | –
MKFKFQF [DF5 / CK16] | – | 98.72 | 101.4 | 111.3 | 99.71 | 75 | –
CEIEIQI [AR2/ TM142] | – | – | – | – | – | 59 | –
CEIEIQINMWQ [TM143] | 59.9 | 59.9 | 119.4 | 116.4 | 95.82 | 74 | –

Substance | Conversion Rate / % [1] [%] | Conversion Rate / % ([1]; fluorescamine assay) [%] | viability 0.26 µM (TZM-bl cells) | viability 1.3 µM (TZM-bl cells) | viability 6.5 µM (TZM-bl cells) | Conversion Rate / % ( from sieste 2021 or Schilling2019) [2] [%] | other results
CSISIQINM [TM145] | – | – | – | – | – | 86 | –
KIKQII [msis21] | 19.94 | 19.94 | – | – | – | – | Conversion Rate / % ( from sieste 2021 or Schilling2019) [2, 3]: 6%
QCKFKQFFNMWQ [CK10] | 98.72 | 98.72 | 119.6 | 108.9 | 99.32 | – | –
CKIKIQINMWQ | – | – | – | – | – | – | CR / % ([1]; Fig. S7 panel B, conversion rate, fluorescamine assay): 89.1%; CR ([1]; conversion rate, fluorescamine assay): 89.15
RGDKIKIQIC [MG7/CN1] | – | – | 116.2 | 110.7 | 92.54 | – | –
CKIKIQINMWQ [MG1] | 91.29 | 91.29 | – | – | – | 87 | –
QCKFKFQFNM [CK8] | 98.94 | 98.94 | – | – | – | – | –
QCKAKAQANMWQ [CK22] | 89.28 | 89.28 | 96.23 | 96.71 | 85.72 | – | –
KFKFQFNM [BL6a] | 98.53 | 98.53 | – | – | – | 91 | –
KIKIKIQI [TG13] | – | – | – | – | – | – | Conversion Rate / % ( from sieste 2021 or Schilling2019) [2, 3]: 80%
RGDCKFKFQF [TM64/ CN15] | – | 85.47 | 108.7 | 107.1 | 101 | – | –
KIKIQINM [JGB2] | – | – | 119.1 | 112 | 103.3 | 64 | –
CEIEIQINM [TM144] | – | – | – | – | – | 43 | –
QCKIKIQI [CK3] | – | – | 95.48 | 97.81 | 91.95 | – | –
QCKFKFQF [CK9] | – | – | 104.7 | 139.5 | 96.02 | – | –
CRFRFQF [CN10] | – | 98.13 | 93.96 | 90.72 | 89.78 | – | –
RGDSKIKIQIC [TM113 / RC11] | – | – | 92.36 | 89.65 | 83.18 | – | –
KAKAQA [JJA2 / TM153] | 0.3138 | 0.3138 | 119.1 | 118.6 | 109.1 | – | –
CKFKFQFW [TM72] | – | – | 91.88 | 85.39 | 82.4 | – | –
